Assay results from patent US20110136867A1, “Treatment of Synucleinopathies” (priority 2006, published 2011).
“Also recorded” adds a separate entry of the source.

Tests used:
[1] = system: SH-SY5Y cells overexpressing α-synuclein; assay: α-synuclein toxicity in SH-SY5Y cells infected by α-synuclein-expressing adenovirus (Trypan blue viable cell counting, MTT assay); format: cell-based
Method: Viral Infection: Viral infection and MTT assay in SH-SY5Y cells: The viruses were amplified and purified according to the published procedure. SH-SY5Y cells were grown on 100 mm petri-dishes and induced with 100 nM retinoic acid for 3-5 days before the virus infection with M.I.O at 75. Viruses were diluted with DPBS to desired M.I.O. After four hours of incubation, 10 ml growth medium was added. On the second day, cells were splitted into 96-well plates and treated with compounds for next 48 hours. The growth medium in each well was replaced with growth medium with 5 ug/ml MTT. Medium was removed after three hours incubation, and 200 ul isopropyl (0.04N HCl) was added into each well. The signal was read at 570 nm.
Viable cell counting: At stated time poins, SH-SY5Y cells were trypsinized with 100 ul trypsin-EDTA for 1 minute and neutralized with 400 ul growth medium. Cell suspension was made up by mixing 0.2 ml of cells in growth medium, 0.3 ml of HBSS and 0.5 ml of 0.4% Trypan Blue solution. Viable cell numbers were counted by standard cell counting chamber.
Since α-synuclein neurotoxicity is dose-dependent, it follows that accumulation of α-synuclein, caused by UCH-L1 farnesylation, should promote its toxicity. […] These cells express high endogenous levels of UCH-L1. […] The unit of y-axis is 10^5 /ml. (F) Cell viability was assessed by the amount of metabolic activity using MTT assay. […]

α-synuclein [2] = assay: α-synuclein accumulation in SH-SY5Y cells infected with α-synuclein-expressing adenovirus (Western blotting, normalized against actin); format: cell-based
Method: (§1) Western Blotting: Following transfer of SDS gels onto NC membrane, all membranes were blocked with 5% non-fat milk in TBST (50 mM Tris-HCl pH7.4, 150 mM NaCl, 0.1% Tween 20), and incubated with primary antibody overnight with 1% BSA in TBST, washed three times with TBST, and incubated with horseradish peroxidase-conjugated secondary antibody for 1 hour (Promega). Bound antibodies were detected using enhanced chemiluminascence (NEM).
Since α-synuclein neurotoxicity is dose-dependent, it follows that accumulation of α-synuclein, caused by UCH-L1 farnesylation, should promote its toxicity. […] These cells express high endogenous levels of UCH-L1. […] The unit of y-axis is 10^5 /ml. (F) Cell viability was assessed by the amount of metabolic activity using MTT assay. […] The effect of FTI-277 on the α-synuclein accumulation in the SH-SY5Y infected with α-synuclein-expressing adenovirus were analyzed by Western blotting (B) and the amount of α-synuclein (C) was quantified using NIH Image program and normalized against the amount of actin.

UCH-L1 [3] = assay: Total amount and turnover of UCH-L1 in SH-SY5Y cells (pulse-chase); format: cell-based
α-synuclein [4] = assay: α-synuclein degradation assay in transfected COS-7 cells (quantitative Western blotting); format: cell-based
Excerpt: Plasmids: C220S cDNA was generated by PCR site-specific mutagenesis. For the PCR, the 5′ primer is uchforw SEQ ID NO: 1 ([…]), and 3′ primer is uchc220s SEQ ID NO:2 (CTAAGA […]). Wt UCH-L1 served as the template. The PCR fragment was inserted into pcDNA vector. For S18YC220S mutant, S18Y UCH-L1 served as the template in PCR. For the FLAG tagged UCH-L1, the 5′ primer is FLAGuchforw SEQ ID NO: 3 ([…] CGATGGAG), and the 3′ primer is uchrev SEQ ID NO: 4 ([…]). Wt UCH-L1 or C220S served as the template. PCR fragment was purified and inserted into pcDNA vector. For the FLAG tagged UCH-L3, the 5′ primer is L3HindIII SEQ ID NO: 5 (CTAAAGCTTATGGACTAC […]), the 3′primer is L3XhoISAA SEQ ID NO: 6 ([…]). […] After 24 hours of incubation, the cells were lysed with Tris buffer (50 mM Tris, 2% SDS, 0.1% NP-40), and subjected to SDS-PAGE, followed by quantitative Western blotting.
as §1, with “(NEM). […]” for “(NEM).”

UCH-L1 [5] = assay: Membrane bound and cytosolic UCH-L1 in SH-SY5Y cells (2D electrophoresis, Western blotting); format: cell-based; conditions: compared to DMSO
Method: 2D electrophoresis: For the isolation of total cellular protein, cultured SH-SY5Y cells maintained as described above were rinsed with ice-cold PBS. Cells were lysed in 1 ml dSDS buffer (50 mM Tris-HCl, pH 8.0 0.1% SDS) supplemented with protease inhibitor cocktail. Lysates were boiled for 3 min, and were treated with Dnase and Rnase as described. Lysates were precipitated with ice-cold acetone for at least 2 hours, and pellets were resuspended in 2D sample buffer (8M urea, 0.5% CHAPS, 0.2% DTT, 0.5% IPG buffer, 0.002% bromophenol blue). 2D electrophoresis was carried out according to manufacture's protocol (Amersham Life Science). 7 cm pH 4-7 strips were used. For SH-SY5Y membrane fraction, culture SH-SY5Y cells were rinsed with cold PBS and harvested with lysis buffer (50 mM Tris-HCl, pH 8.0, 1 mM ZnAc2, 250 mM sucrose). Lysate was passed through 25G needles for several times and spun at 1000 g for 5 min. […]
as §1, with “(NEM). […]” for “(NEM).”

[6] = system: primary dopaminergic cultures; assay: α-synuclein toxicity in primary dopaminergic cultures; format: cell-based
[7] = system: Neuronal Specific Nuclear Protein (NeuN); assay: NeuN staining of cortex and hippocampus of α-synuclein transgenic mice; format: in vivo; conditions: 90 days of treatment
Method: (§2) Farnesyl transferase inhibitors Zarnestra and OSI-754 were administered to mice of the α-synuclein transgenic line described in Masliah et al. (Masliah et al. “Dopaminergic loss and inclusion body formation in alpha-synuclein mice: implications for neurodegenerative disorders” Science 287(5456):1265-69, 2000; incorporated herein by reference). Animals from this line have α-synuclein neuronal inclusions in the cortex, hippocampus, and the olfactory bulb (Masliah et al. “Dopaminergic loss and inclusion body formation in alpha-synuclein mice: implications for neurodegenerative disorders” Science 287(5456):1265-69, 2000; incorporated herein by reference). Transgenic mice were orally administered either FTI in 20% cyclodextrin solution or the same volume of vehicle alone twice a day for 30 or 90 days. In some cases, non-transgenic mice also received vehicle twice a day for 30 to 90 days. At the end of treatment, mice were sacrificed, and the brains removed and hemisected. One hemisphere of each was fixed in 4% paraformaldehyde/PBS (pH 7.4), cryoperserved, then sectioned for histology. […]
Formation of α-synucleininclusions in the cortex and hippocampus was probed by immunostaining with an antibody for human α-synuclein. Cells positive for human α-synuclein were quantified. […]

farnesylated UCH-L1 = assay: Quantitative Western Blot of farnesylated UCH-L1 in cortex membrane fraction of α-synuclein transgenic mice; format: in vivo; conditions: 30 days
Method: as §2
Farnesylated UCH-L1 in the cortex is contained in the membrane fraction. The amount of UCH-L1 was determined by quantitative Western Blot.
Total α-synuclein levels were analyzed by a sandwich ELISA assay. […] The amount of farnesylated UCH-L1 was determined by quantitative Western Blot, then normalized to actin.

α-synuclein [8] = assay: Immunostaining for human α-synuclein in brain sections of α-synuclein transgenic mice; format: in vivo; conditions: vs vehicle
Method: (§3) Farnesyl transferase inhibitors Zarnestra and OSI-754 were administered to mice of the α-synuclein transgenic line described in Masliah et al. (Masliah et al. “Dopaminergic loss and inclusion body formation in alpha-synuclein mice: implications for neurodegenerative disorders” Science 287(5456):1265-69, 2000; incorporated herein by reference). Animals from this line have α-synuclein neuronal inclusions in the cortex, hippocampus, and the olfactory bulb (Masliah et al. “Dopaminergic loss and inclusion body formation in alpha-synuclein mice: implications for neurodegenerative disorders” Science 287(5456):1265-69, 2000; incorporated herein by reference). Transgenic mice were orally administered either FTI in 20% cyclodextrin solution or the same volume of vehicle alone twice a day for 30 or 90 days. In some cases, non-transgenic mice also received vehicle twice a day for 30 to 90 days. At the end of treatment, mice were sacrificed, and the brains removed and hemisected. One hemisphere of each was fixed in 4% paraformaldehyde/PBS (pH 7.4), cryoperserved, then sectioned for histology. The other hemisphere was subdivided into four brain regions, including the cortex and hippocampus, that were homogenized and processed into cytoplasmic and membrane fractions.
Formation of α-synuclein inclusions in the cortex and hippocampus was probed by immunostaining with an antibody for human α-synuclein. Cells positive for human α-synuclein were quantified. […] These regions were also analyzed for ubiquitin-immunoreactive inclusions and by the Campbell Switzer method of silver staining. Ubiquitin is known to be a constituent of Lewy Bodies and in the α-synculein inclusions found in the transgenic mouse line used in the study (Masliah et al. “Dopaminergic loss and inclusion body formation in alpha-synuclein mice: implications for neurodegenerative disorders” Science 287(5456):1265-69, 2000; incorporated herein by reference). […] Campbell-Switzer staining is a general marker of Lewy Body type inclusions (Uchihara et al. “Silver stainings distinguish Lewy bodies and glial cytoplasmic inclusions: comparison between Gallyas-Braak and Campbell-Switzer methods” Acta Neuropathol. (Berl.) 110(3):255-60, 2005; incorporated herein by reference).

α-synuclein [9] = assay: Sandwich ELISA of total α-synuclein in brain fractions of α-synuclein transgenic mice; format: in vivo
Method: as §3
Total α-synuclein levels were analyzed by a sandwich ELISA assay similar to one previously described (El-Agnaf et al. “Detection of oligomeric forms of alpha-synuclein protein in human plasma as a potential biomarker for Parkinson's disease” FASEB J. 20(3):419-25, 2006; incorporated herein by reference). In the cortex of vehicle treated animals, α-synuclein protein levels in the α-synuclein transgenic line are greater than in non-transgenic mice in both cytoplasmic (FIG. 10) and membrane fractions (FIG. 11).

[10] = system: ubiquitin-immunoreactive inclusions; assay: Ubiquitin immunohistochemistry in brain of α-synuclein transgenic mice; format: in vivo; conditions: 35 mg/kg twice a day, 30 days; vs vehicle
Method: (§4) Farnesyl transferase inhibitors Zarnestra and OSI-754 were administered to mice of the α-synuclein transgenic line described in Masliah et al. (Masliah et al. “Dopaminergic loss and inclusion body formation in alpha-synuclein mice: implications for neurodegenerative disorders” Science 287(5456):1265-69, 2000; incorporated herein by reference). Animals from this line have α-synuclein neuronal inclusions in the cortex, hippocampus, and the olfactory bulb (Masliah et al. “Dopaminergic loss and inclusion body formation in alpha-synuclein mice: implications for neurodegenerative disorders” Science 287(5456):1265-69, 2000; incorporated herein by reference). Transgenic mice were orally administered either FTI in 20% cyclodextrin solution or the same volume of vehicle alone twice a day for 30 or 90 days. In some cases, non-transgenic mice also received vehicle twice a day for 30 to 90 days. At the end of treatment, mice were sacrificed, and the brains removed and hemisected. […]
(§5) Formation of α-synuclein inclusions in the cortex and hippocampus was probed by immunostaining with an antibody for human α-synuclein. Cells positive for human α-synuclein were quantified. […] These regions were also analyzed for ubiquitin-immunoreactive inclusions and by the Campbell Switzer method of silver staining. […]

[11] = system: Lewy body-like inclusions; assay: Campbell Switzer silver staining of Lewy body-like inclusions in α-synuclein transgenic mice; format: in vivo; conditions: 35 mg/kg twice a day, 30 days; vs vehicle
Method: as §4, §5

[12] = cortex, 45 mg/kg twice a day, 30 days, vs vehicle
[13] = cortex, 35 mg/kg twice a day, 30 days, vs vehicle-treated transgenic mice

Structure (SMILES): COC(=O)[C@H](CCSC)NC(=O)c1ccc(NC[C@@H](N)CS)cc1-c1ccccc1 [FTI-277]
- neuroprotective effect of FTI-277 on co-administration of the small-molecule UCH-L1 inhibitor ([1]; SH-SY5Y cells infected with α-synuclein adenovirus, data not shown): eliminated
- α-synuclein toxicity / loss of cells ([1]; neuronally differentiated SH-SY5Y cells infected with α-synuclein adenovirus): inhibits synuclein toxicity; also recorded: rescued α-synuclein toxicity; also recorded: significantly decreased loss of cells
- amount of α-synuclein (α-synuclein [2]): reducing the amount of α-synuclein accumulation; also recorded: reduced the amount of α-synuclein
- total amount of UCH-L1 (UCH-L1 [3]): reduced the total amount of UCH-L1
- rate of turnover of UCH-L1 (UCH-L1 [3]; pulse-chase experiment not shown): increased its rate of turnover
- synuclein level (α-synuclein [4]; COS-7 cells): lowers synuclein level
- amount of cytosolic UCH-L1 (UCH-L1 [5]): without affecting
- amount of membrane bound UCH-L1 (UCH-L1 [5]): significant decrease; also recorded: decreased the amount of the membrane-associated species
- α-synuclein toxicity [6]: inhibit α-synuclein toxicity

Structure (SMILES): C#Cc1cccc(-c2cc(=O)n(C)c3ccc(C(O)(c4ccc(Cl)cc4)c4cncn4C)cc23)c1 (stereo not drawn) [OSI-754]
- neuronal morphology or density (NeuN staining) [7]: did not affect neuronal morphology or density
- amount of farnesylated UCH-L1, normalized to actin (farnesylated UCH-L1; 45 mg/kg twice a day): decreased the amount of farnesylated UCH-L1
- α-synuclein-positive cells per mm^2 (α-synuclein [8]; cortex, 9 mg/kg twice a day, 90 days): fewer
- α-synuclein-positive cells per mm^2 (α-synuclein [8]; cortex, 45 mg/kg twice a day, 90 days): fewer
- α-synuclein-positive cells per mm^2 (α-synuclein [8]; hippocampus, 9 mg/kg twice a day, 90 days): fewer
- α-synuclein-positive cells per mm^2 (α-synuclein [8]; hippocampus, 45 mg/kg twice a day, 90 days): fewer
- α-synuclein protein levels, cytoplasmic fraction (α-synuclein [9]; cortex, 9 mg/kg twice a day, 90 days, vs vehicle): lower α-synuclein protein levels
- α-synuclein protein levels, cytoplasmic fraction (α-synuclein [9]; [12]): lower α-synuclein protein levels
- α-synuclein protein levels, membrane fraction (α-synuclein [9]; [12]): lower α-synuclein protein levels
- α-synuclein protein levels, cytoplasmic fraction (α-synuclein [9]; cortex, 45 mg/kg twice a day, 90 days, vs vehicle): lower α-synuclein protein levels
- α-synuclein protein levels, membrane fraction (α-synuclein [9]; hippocampus, 9 mg/kg twice a day, 90 days, vs vehicle): lower α-synuclein protein levels
- α-synuclein protein levels, membrane fraction (α-synuclein [9]; hippocampus, 45 mg/kg twice a day, 90 days, vs vehicle): lower α-synuclein protein levels

Structure (SMILES): Cn1cncc1C(N)(c1ccc(Cl)cc1)c1ccc2c(c1)c(-c1cccc(Cl)c1)cc(=O)n2C (stereo not drawn) [Zarnestra]
- amount of farnesylated UCH-L1 (farnesylated UCH-L1; 35 mg/kg twice a day, 35 mg/kg): decreased; also recorded: decreased the amount of farnesylated UCH-L1 in transgenic mice to levels similar to non-transgenic mice
- ubiquitin-immunoreactive inclusions [10]: fewer ubiquitin-immunoreactive inclusions
- α-synuclein-positive cells per mm^2 (α-synuclein [8]; cortex, 35 mg/kg twice a day orally, 30 days): significantly fewer
- α-synuclein-positive cells per mm^2 (α-synuclein [8]; hippocampus, 35 mg/kg twice a day orally, 30 days): significantly fewer
- inclusions by Campbell-Switzer staining [11]: fewer inclusions
- levels of α-synuclein protein in the cortex (α-synuclein [9]; 35 mg/kg twice a day, 30 days): decreased levels of α-synuclein protein
- α-synuclein protein levels, cytoplasmic fraction (α-synuclein [9]; [13]): lower α-synuclein protein levels
- α-synuclein protein levels, membrane fraction (α-synuclein [9]; [13]): lower α-synuclein protein levels

Structure (SMILES): CC(=O)N[C@@H](CSC(=O)[C@]1([C@@H](O)C(C)C)NC(=O)[C@H](C)[C@@H]1O)C(=O)O [lactacystin]
- accumulation of α-synuclein (16 KDa, normalized against actin) (α-synuclein [4]; transfected COS-7 cells, 35 μM lactacystin, 24 hours): 100%
